Reference: US20230126310A1 (priority 2020, published 2023)
pIC50: −log10 of the molar value. Where a name gives a salt, the structure may show the parent alone. Read-outs that look alike come from different tables or passages of the source. Numbered stars: 1 amine (or outer) side, 2 acyl side, 3 side chain; on linkers, the order of the positions; unused ones are H or OH. Bridge positions count the residues as written; N and C are the ends. Square brackets hold non-standard residues; d marks the D form. Peptide text beside a SMILES is read from it. I, II: the chains in the order shown. Actinocin(9to1) = Cc1c2oc3c(C)ccc(C(=O)[*:1])c3nc-2c(C(=O)[*:2])c(N)c1=O; NMeV = CN[C@H](C(=O)O)C(C)C; Sar = CNCC(=O)O

System: SARS-CoV-2
Experiment: microbe, parasite or virus in culture
Settings: Severe acute respiratory syndrome coronavirus 2, Caco-2, 48 h; for inhibition at 10 µM: read-out: % Inh. (% Inhibition of SARS-CoV-2); for IC50: read-out: pIC50 (converted)

Structure (SMILES) | inhibition at 10 µM | pIC50 | IC50
C=CCNc1c(O)cc2c(O)c1C[C@@H](C)C[C@H](OC)[C@H](O)[C@@H](C)/C=C(\C)[C@H](OC(N)=O)[C@@H](OC)/C=C\C=C(/C)C(=O)N2 [Retaspimycin (Hydrochloride)] | 74.7% | – | –
Cc1ccc(Oc2ccccc2-c2csc(N=C3NCCCN3)n2)c(C)c1 [Abafungin] | 92.9% | – | –
C[C@@H](c1nc(-c2ccc(C#N)cc2)cs1)[C@](O)(Cn1cncn1)c1cc(F)ccc1F [Isavuconazole] | 92.8% | – | –
CS[C@H]1SC[C@H]2C(=O)N(C)[C@@H](C(C)C)C(=O)OC[C@@H](NC(=O)c3cnc4ccccc4n3)C(=O)N[C@@H](C)C(=O)N(C)[C@@H]1C(=O)N(C)[C@@H](C(C)C)C(=O)OC[C@@H](NC(=O)c1cnc3ccccc3n1)C(=O)N[C@@H](C)C(=O)N2C [Echinomycin] | 77.5% | – | –
Cn1c(NC[C@@H](N)Cc2ccccc2)nc(-c2ccncc2)c(-c2ccc3ccccc3c2)c1=O [AMG-548] | 89% | – | –
COCC(=O)O[C@]1(CCN(C)CCCc2nc3ccccc3[nH]2)CCc2cc(F)ccc2[C@@H]1C(C)C [mibefradil] | 52.4% | – | –
O=C(NCc1ccncc1)C12CC3CC(C1)CC(c1ccc(Cl)cc1)(C3)C2 [ABC294640] | 81.4% | 4.42 | 38 µM
NC(=O)NS(=O)(=O)c1ccc(N)cc1 [SULFACARBAMIDE] | 58.1% | – | –
C/C=C/C=C/C(=O)O [sorbic-acid] | 65.5% | – | –
N#CC1(c2ccc(NC(=O)c3cccnc3NCc3ccncc3)cc2)CCCC1 [Apatinib mesylate] | 70.9% | – | –
O=C(Cn1ccnc1[N+](=O)[O-])NCCO [etanidazole] | 57.3% | – | –
CCCCC(CC)CNC(=N)NC(=N)NCCCCCCNC(=N)NC(=N)NCC(CC)CCCC (stereo not shown) [Alexidine dihydrochloride] | 76.3% | – | –
Cc1ccnc2c1CCCC2C(N)=S (stereo not shown) [isotiquimide] | 50% | – | –
FC(F)c1nc2ccccc2n1-c1nc(N2CCOCC2)nc(N2CCOCC2)n1 [ZSTK474] | 90.9% | – | –
NC(=O)N1C(=O)/C(=C(\O)c2cccs2)c2cc(Cl)ccc21 [tenidap] | 75.2% | – | –
C=CC(N)CCC(=O)O (stereo not shown) [Vigabatrin] | 52.5% | – | –
Cn1c(=O)n(-c2ccc(C(C)(C)C#N)cc2)c2c3cc(-c4cnc5ccccc5c4)ccc3ncc21 [Dactolisib (BEZ235, NVP-BEZ235), Dactolisib] | 91.8% | – | –
Cc1nc(C#Cc2ccnc(Cl)c2)c(C)n1-c1ccc(F)cc1 [Basimglurant] | – | 4.60 | 25.1 µM
CCNC(=O)Nc1ccc(-c2nc3c(c(N4CCOC[C@@H]4C)n2)CCN(C2COC2)C3)cc1 [GDC-0349] | 83.8% | – | –
N[C@H](C(=O)O)c1ccc(O)cc1 [oxfenicine] | 50.7% | – | –
CO[C@H]1C[C@H](O[C@@H]2/C(C)=C/C[C@@H]3C[C@@H](C[C@]4(CC[C@H](C)[C@@H](C5CCCCC5)O4)O3)OC(=O)[C@@H]3C=C(C)/C(=N/O)[C@H]4OC/C(=C\C=C\[C@@H]2C)[C@]43O)O[C@@H](C)[C@@H]1O [SELAMECTIN] | 68.2% | – | –
CCOC(=O)Nc1cc2c(c(N)n1)N=C(c1ccccc1)[C@H](C)N2 [mivobulin] | 65% | – | –
COc1ccc(/C=C/C(=O)O)cc1 [trans-4-Methoxycinnamic-acid] | 53.6% | – | –
O=C(OCC(COC(=O)c1cccnc1)(COC(=O)c1cccnc1)COC(=O)c1cccnc1)c1cccnc1 [niceritrol] | 50.1% | – | –
CCCCCCCCCCCCCCCC[N+](C)(C)Cc1ccccc1 [Benzyldimethylhexadecylammonium chloride hydrate] | 57% | – | –
Cc1cc(C(C#N)c2ccc(Cl)cc2)c(Cl)cc1NC(=O)c1cc(I)cc(I)c1O (stereo not shown) [CLOSANTEL] | 80% | – | –

Structure (SMILES) | inhibition at 10 µM | pIC50 | IC50
O=c1[nH]c2ccccc2n1C1CCN(CCCC(c2ccc(F)cc2)c2ccc(F)cc2)CC1 [PIMOZIDE] | 94% | – | –
FC(F)(F)c1ccc(/C=C/c2nc(COc3ccc(CCCCn4ccnn4)cc3)co2)cc1 [mubritinib] | 82.2% | – | –
O=C(Nc1ccc(OC(F)(F)F)cc1)c1sccc1NCc1ccnc2ccccc12 [OSI-930] | 100% | – | –
O=C1NC(=S)NC(=O)C1C(=O)Nc1ccccc1 [merbarone] | 50.4% | – | –
COc1cc2c(Nc3ccc(Br)cc3F)ncnc2cc1OCC1CCN(C)CC1 [Vandetanib (ZD6474), Vandetanib] | 51.2% | – | –
COc1cc2nccc(Oc3ccc(NC(=O)C4(C(=O)Nc5ccc(F)cc5)CC4)cc3)c2cc1OC [cabozantinib] | 57.5% | – | –
CNC(=O)c1cccc(-c2ccc3c(N4CCOC[C@@H]4C)nc(N4CCOC[C@@H]4C)nc3n2)c1 [Vistusertib (AZD2014), Vistusertib] | 112% | – | –
NC(N)=NCc1cccc(I)c1 [iobenguane] | 86.9% | – | –
C[C@@H]([C@@H](O)c1ccc(O)cc1)N1CCC(O)(c2ccccc2)CC1 [CP 101606] | 54.3% | – | –
CCC[C@H](Nc1nc(-c2ccc(NC(=O)NCC)c(OC)c2)ncc1C)c1cccnc1 [CYT997] | 58.6% | – | –
OCCOc1ccc(/C(=C(/CCCl)c2ccccc2)c2ccccc2)cc1 [Ospemifene] | 52.9% | – | –
Cc1c2oc3c(C)ccc(C(=O)N[C@@H]4C(=O)N[C@H](C(C)C)C(=O)N5CCC[C@H]5C(=O)N(C)CC(=O)N(C)[C@@H](C(C)C)C(=O)O[C@@H]4C)c3nc-2c(C(=O)N[C@@H]2C(=O)N[C@H](C(C)C)C(=O)N3CCC[C@H]3C(=O)N(C)CC(=O)N(C)[C@@H](C(C)C)C(=O)O[C@@H]2C)c(N)c1=O [DACTINOMYCIN] (I: T[dV]P[Sar][NMeV] / II: T[dV]P[Sar][NMeV]; ester I:1-I:C, II:1-II:C; linker I:N-II:N via Actinocin(9to1)) | 74.6% | – | –
Nc1cc(C(F)(F)F)c(-c2nc(N3CCOCC3)nc(N3CCOCC3)n2)cn1 [Bimiralisib] | 97.2% | – | –
CC(=O)Oc1c(C)cc(OCC(O)CNC(C)C)c(C)c1C (stereo not shown) [metipranolol] | 54.6% | – | –
Clc1ccccc1C(c1ccccc1)(c1ccccc1)n1ccnc1 [CLOTRIMAZOLE] | 81.7% | – | –
O=C(CC(c1ccccc1)c1ccccc1)N1CCN(C(c2ccccc2)c2ccccc2)CC1 [NP118809] | 60.8% | – | –
Cn1cnc2c1c(=O)[nH]c(=O)n2C [THEOBROMINE] | 52.4% | – | –
COc1cc2ncnc(Nc3ccc(F)c(Cl)c3)c2cc1NC(=O)/C=C/CN1CCCCC1 [Dacomitinib (PF299804, PF-00299804), Dacomitinib] | 85.5% | – | –
O=C(/C=C/c1cccnc1)NCCCCC1CCN(C(=O)c2ccccc2)CC1 [FK-866] | 50.9% | – | –
N#C/C(=C1/SCC(c2ccccc2Cl)S1)n1ccnc1 (stereo not shown) [Lanoconazole] | 70.7% | – | –
O=C(NC[C@H](O)CO)c1ccncc1Nc1ccc(I)cc1F [Pimasertib (AS-703026), Pimasertib] | 53.2% | – | –
COc1cc(C(=O)NC2CCN(C)CC2)c(F)cc1Nc1ncc2c(n1)N(C1CCCC1)CC(F)(F)C(=O)N2C [TAK-960] | 91.6% | – | –
CCNC1=Nc2ccc(Cl)cc2C(C)(c2ccccc2)O1 (stereo not shown) [Etifoxine (hydrochloride)] | – | 5.03 | 9.33 µM
COC(=O)[C@H]1[C@H]2C[C@@H]3c4[nH]c5cc(OC)ccc5c4CCN3C[C@H]2C[C@@H](OC(=O)c2cc(OC)c(OC)c(OC)c2)[C@@H]1OC [RESERPINE] | 67.8% | – | –
O=C(O)CCCO [SODIUM OXYBATE] | 57.3% | – | –
